Target: human CB1 receptor (Homo sapiens, UniProt P21554)
Experiment: cell-based
Details: not given

Sequence of human CB1 receptor (P21554 whole entry): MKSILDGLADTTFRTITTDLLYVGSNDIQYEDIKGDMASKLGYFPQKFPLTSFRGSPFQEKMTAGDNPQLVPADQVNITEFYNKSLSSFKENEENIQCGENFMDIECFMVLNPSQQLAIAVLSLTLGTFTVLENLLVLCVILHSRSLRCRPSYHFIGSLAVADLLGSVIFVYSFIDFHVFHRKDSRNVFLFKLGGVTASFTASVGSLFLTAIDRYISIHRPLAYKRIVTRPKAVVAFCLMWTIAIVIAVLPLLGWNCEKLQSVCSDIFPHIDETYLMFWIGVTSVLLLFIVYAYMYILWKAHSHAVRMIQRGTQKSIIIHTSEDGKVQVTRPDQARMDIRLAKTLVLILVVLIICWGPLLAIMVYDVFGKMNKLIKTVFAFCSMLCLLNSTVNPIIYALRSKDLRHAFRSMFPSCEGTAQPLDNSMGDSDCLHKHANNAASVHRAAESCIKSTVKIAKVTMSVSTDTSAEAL

SMILES	EC50 [µM]
O=C(c1cnc2c(c1)N(S(=O)(=O)c1ccc(C(F)(F)F)cc1)CCO2)N1CCCCC1CO (racemic) [Example 72, +/− (2-(hydroxymethyl)piperidin-1-yl)(1-(4-(trifluoro-methyl)phenylsulfonyl)-2,3-dihydro-1H-pyrido [2,3-b][1,4]oxazin-7-yl) methanone]	> 30
COC(=O)CC1CCCCN1C(=O)c1cnc2c(c1)N(S(=O)(=O)c1ccc(C(F)(F)F)cc1)CCO2 (racemic) [Example 73, +/− methyl 2-(1-(1-(4-(trifluoromethyl)phenylsulf-onyl)-2,3-dihydro-1H-pyrido[2,3-b][1,4]oxazine-7-carbonyl)piperidin-2-yl)acetate]	> 30
O=C(c1cnc2c(c1)N(S(=O)(=O)c1ccc(C(F)(F)F)cc1)CCO2)N1CCCCC1CN1CCCC1 (racemic) [Example 75, +/− (2-(pyrrolidin-1-ylmethyl)piperidin-1-yl)(1-(4-(trifluoromethyl)-phenylsulfonyl)-2,3-dihydro-1H-pyrido[2,3-b][1,4]oxazin-7-yl)-methanone]	> 30
O=C(c1cnc2c(c1)N(S(=O)(=O)c1ccc(C(F)(F)F)cc1)CCO2)N1CCCCC1CN1CCOCC1 (racemic) [Example 76, +/− (2-(morpholino-methyl)piperidin-1-yl)(1-(4-(trifluoromethyl)-phenylsulfonyl)-2,3-dihydro-1H-pyrido[2,3-b][1,4]oxazin-7-yl)methanone]	> 30
O=C(c1cnc2c(c1)N(S(=O)(=O)c1ccccc1)CCO2)N1CCCCC1 [Example 1, (1-(phenylsulfonyl)-2,3-dihydro-1H-pyrido[2,3-b][1,4]oxazin-7-yl)(piperidin-1-yl)methanone]	> 30
O=C(NCC1CCOCC1)c1cnc2c(c1)N(S(=O)(=O)c1ccc(F)cc1)CCO2 [Example 9, 1-(4-fluorophenyl-sulfonyl)-N-((tetrahydro-2H-pyran-4-yl)methyl)-2,3-dihydro-1H-pyrido[2,3-b][1,4]oxazine-7-carboxamide]	> 30
CCN(CC)C(=O)c1cnc2c(c1)N(S(=O)(=O)c1ccc(F)cc1)CCO2 [Example 13, N,N-diethyl-1-(4-fluorophenylsulfonyl)2,3-dihydro-1H-pyrido[2,3-b][1,4]oxazine-7-carboxamide]	> 30
O=C(NCC1CCCO1)c1cnc2c(c1)N(S(=O)(=O)c1ccc(F)cc1)CCO2 (stereo not shown) [Example 14, 1-(4-fluorophenyl-sulfonyl)-N-((tetra-hydrofuran-2-yl)methyl)-2,3-dihydro-1H-pyrido [2,3-b][1,4]oxazine-7-carboxamide]	> 30
CC(C)(C)NC(=O)c1cnc2c(c1)N(S(=O)(=O)c1cccnc1)CCO2 [Example 16, N-tert-butyl-1-(pyridin-3-ylsulfonyl)-2,3-dihydro-1H-pyrido[2,3-b][1,4]oxazine-7-carboxamide]	> 30
O=C(NC1CCCC1)c1cnc2c(c1)N(S(=O)(=O)c1cccnc1)CCO2 [Example 17, N-cyclopentyl-1-(pyridin-3-ylsulfonyl)-2,3-dihydro-1H-pyrido[2,3-b][1,4]oxazine-7-carboxamide]	> 30
CC(C)CS(=O)(=O)N1CCOc2ncc(C(=O)NC(C)(C)C)cc21 [Example 28, N-tert-butyl-1-(isobutylsulfonyl)-2,3-dihydro-1H-pyrido[2,3-b][1,4]oxazine-7-carboxamide]	> 30
CC(C)CS(=O)(=O)N1CCOc2ncc(C(=O)NC3CCCC3)cc21 [Example 29, N-cyclopentyl-1-(isobutylsulfonyl)-2,3-dihydro-1H-pyrido[2,3-b][1,4]oxazine-7-carboxamide]	> 30
CN(Cc1ccccc1)C(=O)c1cnc2c(c1)N(S(=O)(=O)c1ccc(F)cc1)CCO2 [Example 32, N-benzyl-1-(4-fluorophenylsulfonyl)-N-methyl-2,3-dihydro-1H-pyrido[2,3-b][1,4]oxazine-7-carboxamide]	> 30
COCCN(C)C(=O)c1cnc2c(c1)N(S(=O)(=O)c1ccc(Cl)cc1)CCO2 [Example 34, 1-(4-chlorophenyl-sulfonyl)-N-(2-methoxy-ethyl)-N-methyl-2,3-dihydro-1H-pyrido[2,3-b][1,4]oxazine-7-carboxamide]	> 30
COCCN(C)C(=O)c1cnc2c(c1)N(S(=O)(=O)c1ccc(C(F)(F)F)cc1)CCO2 [Example 35, N-(2-methoxyethyl)-N-methyl-1-(4-(trifluoro-methyl)phenylsulfonyl)-2,3-dihydro-1H-pyrido-[2,3-b][1,4]oxazine-7-carboxamide]	> 30
CN(Cc1ccccc1)C(=O)c1cnc2c(c1)N(S(=O)(=O)c1ccc(C(F)(F)F)cc1)CCO2 [Example 36, N-benzyl-N-methyl-1-(4-(trifluoromethyl)phenylsulf-onyl)-2,3-dihydro-1H-pyrido[2,3-b][1,4]oxazine-7-carboxamide]	> 30
CC(C)(CN1CCCC1)NC(=O)c1cnc2c(c1)N(S(=O)(=O)c1ccc(C(F)(F)F)cc1)CCO2 [Example 37, N-(2-methyl-1-(pyrrolidin-1-yl)propan-2-yl)-1-(4-(trifluoromethyl)phenylsulf-onyl)-2,3-dihydro-1H-pyrido[2,3-b][1,4]oxazine-7-carboxamide]	> 30

SMILES	EC50 [µM]
CC(C)(C)N(CCC#N)C(=O)c1cnc2c(c1)N(S(=O)(=O)c1ccc(C(F)(F)F)cc1)CCO2 [Example 41, N-tert-butyl-N-(2-cyanoethyl)-1-(4-(trifluoromethyl)phenylsulf-onyl)-2,3-dihydro-1H-pyrido[2,3-b][1,4]oxazine-7-carboxamide]	> 30
CC(C)(C)N(CCO)C(=O)c1cnc2c(c1)N(S(=O)(=O)c1ccc(C(F)(F)F)cc1)CCO2 [Example 44, N-tert-butyl-N-(2-hydroxyethyl)-1-(4-(trifluoromethyl)phenylsulf-onyl)-2,3-dihydro-1H-pyrido[2,3-b][1,4]oxazine-7-carboxamide]	> 30
CC(C)(N)CNC(=O)c1cnc2c(c1)N(S(=O)(=O)c1ccc(C(F)(F)F)cc1)CCO2 [Example 47, N-(2-amino-2-methylpropyl)-1-(4-(trifluoromethyl)phenylsulf-onyl)-2,3-dihydro-1H-pyrido[2,3-b][1,4]oxazine-7-carboxamide]	> 30
O=C(c1cnc2c(c1)N(S(=O)(=O)c1ccc(C(F)(F)F)cc1)CCO2)N1CCCCC1 [Example 49, piperidin-1-yl(1-(4-(trifluoromethyl)phenylsulf-onyl)-2,3-dihydro-1H-pyrido[2,3-b][1,4]oxazin-7-yl)methanone]	> 30
O=C(c1cnc2c(c1)N(S(=O)(=O)c1ccc(C(F)(F)F)cc1)CCO2)N1CCOCC1 [Example 50, morpholino(1-(4-(trifluoromethyl)phenylsulf-onyl)-2,3-dihydro-1H-pyrido[2,3-b][1,4]oxazin-7-yl)methanone]	> 30
COCCNC(=O)c1cnc2c(c1)N(S(=O)(=O)c1ccc(C(F)(F)F)cc1)CCO2 [Example 51, N-(2-methoxyethyl)-1-(4-(trifluoromethyl)phenysulf-onyl)-2,3-dihydro-1H-pyrido[2,3-b][1,4]oxazine-7-carboxamide]	> 30
CC(C)(C)NC(=O)c1cnc2c(c1)N(S(=O)(=O)c1ccc(Cl)cc1Cl)CCO2 [Example 54, N-tert-butyl-1-(2,4-dichlorophenylsulfonyl)-2,3-dihydro-1H-pyrido[2,3-b][1,4]oxazine-7-carboxamide]	> 30
Cc1cc(F)ccc1S(=O)(=O)N1CCOc2ncc(C(=O)NC(C)(C)C)cc21 [Example 56, N-tert-butyl-1-(4-fluoro-2-methylphenylsulfonyl)-2,3-dihydro-1H-pyrido[2,3-b][1,4]oxazine-7-carboxamide]	> 30
CC(C)(C)NC(=O)c1cnc2c(c1)N(S(=O)(=O)c1ccc(F)cc1Cl)CCO2 [Example 57, N-tert-butyl-1-(2-chloro-4-fluorophenylsulfonyl)-2,3-dihydro-1H-pyrido[2,3-b][1,4]oxazine-7-carboxamide]	> 30
CC(C)(C)NC(=O)c1cnc2c(c1)N(S(=O)(=O)Cc1ccccc1)CCO2 [Example 60, 1-(benzylsulfonyl)-N-tert-butyl-2,3-dihydro-1H-pyrido[2,3-b][1,4]oxazine-7-carboxamide]	> 30
CC(C)(C)NC(=O)c1cnc2c(c1)N(S(=O)(=O)Cc1ccc(F)cc1)CCO2 [Example 62, N-tert-butyl-1-(4-fluorobenzylsulfonyl)-2,3-dihydro-1H-pyrido[2,3-b][1,4]oxazine-7-carboxamide]	> 30
CC(C)(CN1CCCCC1)NC(=O)c1cnc2c(c1)N(S(=O)(=O)c1ccc(C(F)(F)F)cc1)CCO2 [Example 77, N-(2-methyl-1-(piperidin-1-yl)propan-2-yl)-1-(4-(trifluoromethyl)phenylsulf-onyl)-2,3-dihydro-1H-pyrido[2,3-b][1,4]oxazine-7-carboxamide]	> 30
CCCS(=O)(=O)N1CCOc2ncc(C(=O)NC(C)(C)C)cc21 [Example 79, N-tert-butyl-1-(propylsulfonyl)-2,3-dihydro-1H-pyrido[2,3-b][1,4]oxazine-7-carboxamide]	> 30
CC(C)(C)NC(=O)c1cnc2c(c1)N(S(=O)(=O)c1ccc(C(C)(C)C)cc1)CCO2 [Example 82, N-tert-butyl-1-(4-tert-butylphenylsulfonyl)-2,3-dihydro-1H-pyrido[2,3-b][1,4]oxazine-7-carboxamide]	> 30
CC(C)(C)NC(=O)c1cnc2c(c1)N(S(=O)(=O)c1cccc(OC(F)(F)F)c1)CCO2 [Example 85, N-tert-butyl-1-(3-(trifluoromethoxy)phenyl-sulfonyl)-2,3-dihydro-1H-pyrido[2,3-b][1,4]oxazine-7-carboxamide]	> 30
Cc1cccc(S(=O)(=O)N2CCOc3ncc(C(=O)NC(C)(C)C)cc32)c1 [Example 86, N-tert-butyl-1-(m-tolylsulfonyl)-2,3-dihydro-1H-pyrido[2,3-b][1,4]oxazine-7-carboxamide]	> 30

Same assay, conditions: asterisk at the compound number

SMILES	inverse agonist mark, human CB1 receptor
CC(C)(C)NC(=O)c1cnc2c(c1)N(S(=O)(=O)Cc1ccc(Cl)cc1)CCO2 [Example 61, N-tert-butyl-1-(4-chlorobenzylsulfonyl)-2,3-dihydro-1H-pyrido[2,3-b][1,4]oxazine-7-carboxamide]	2, 3, 5, 7, 8, 10, 39, 58, 61*, 69, 93*, 101, 102, 109, 110, 111, 112,

Reference: patent US7960377B2 (priority 2008, dated 2011)
